From ChEMBL document CHEMBL1759913, “Discovery of the first non-ATP competitive IGF-1R kinase inhibitors: advantages in comparison with competitive inhibitors” (Bioorg Med Chem Lett, 2011)
In brackets after ≈: the same amount, converted by molar mass. Each block holds one molecule with its values, some of them ahead of it.

What was measured:
[1] = target: T1, Insulin-like growth factor 1 receptor (Homo sapiens, UniProt P08069); assay: Inhibition of IGF-induced autophosphosphorylation of GST-tagged human IGF1R expressed in SF21 cells by time resolved-fluorescent assay
T1 sequence (P08069 31-736 limits assumed): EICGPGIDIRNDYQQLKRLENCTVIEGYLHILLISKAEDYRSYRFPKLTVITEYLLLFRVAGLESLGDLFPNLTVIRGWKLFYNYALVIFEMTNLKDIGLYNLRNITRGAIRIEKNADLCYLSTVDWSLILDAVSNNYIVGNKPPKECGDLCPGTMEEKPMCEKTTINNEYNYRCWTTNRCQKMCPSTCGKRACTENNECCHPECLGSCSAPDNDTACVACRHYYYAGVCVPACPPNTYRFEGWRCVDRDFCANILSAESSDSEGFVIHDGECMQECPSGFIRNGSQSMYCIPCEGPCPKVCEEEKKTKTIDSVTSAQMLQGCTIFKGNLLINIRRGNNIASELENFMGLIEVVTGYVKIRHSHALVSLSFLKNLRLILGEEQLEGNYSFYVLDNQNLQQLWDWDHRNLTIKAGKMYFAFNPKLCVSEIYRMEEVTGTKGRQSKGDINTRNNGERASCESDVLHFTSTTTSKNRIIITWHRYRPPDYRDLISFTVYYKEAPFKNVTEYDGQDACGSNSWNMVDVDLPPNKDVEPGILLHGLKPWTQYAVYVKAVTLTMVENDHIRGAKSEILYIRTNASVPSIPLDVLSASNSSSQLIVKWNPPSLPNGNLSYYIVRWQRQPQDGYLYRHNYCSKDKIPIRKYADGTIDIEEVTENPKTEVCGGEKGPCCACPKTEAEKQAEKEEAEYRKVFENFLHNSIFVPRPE
T1 sequence (P08069 741-1367 limits assumed): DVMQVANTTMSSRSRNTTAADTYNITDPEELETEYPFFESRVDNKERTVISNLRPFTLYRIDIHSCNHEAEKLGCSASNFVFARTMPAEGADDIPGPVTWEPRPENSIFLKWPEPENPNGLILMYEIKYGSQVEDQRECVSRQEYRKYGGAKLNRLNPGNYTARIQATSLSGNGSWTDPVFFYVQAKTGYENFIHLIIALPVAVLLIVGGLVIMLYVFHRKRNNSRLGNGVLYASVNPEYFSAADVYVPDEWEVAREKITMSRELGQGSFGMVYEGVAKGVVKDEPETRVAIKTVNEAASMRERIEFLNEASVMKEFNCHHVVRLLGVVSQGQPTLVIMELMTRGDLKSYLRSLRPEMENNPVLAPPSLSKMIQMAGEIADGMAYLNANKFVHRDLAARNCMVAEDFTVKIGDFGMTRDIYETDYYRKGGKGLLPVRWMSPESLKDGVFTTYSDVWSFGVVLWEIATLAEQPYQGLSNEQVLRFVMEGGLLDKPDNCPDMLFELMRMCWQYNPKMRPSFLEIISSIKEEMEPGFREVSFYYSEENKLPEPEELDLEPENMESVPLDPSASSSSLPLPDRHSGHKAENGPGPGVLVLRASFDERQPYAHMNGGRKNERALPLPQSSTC

MEF = assay: Antiproliferative activity against mouse MEF cells transfected with human IGF1R assessed as inhibition of IGF1-induced proliferation after 72 hrs by [14C]thymidine incorporation assay; format: functional, cell-based
[2] = Cmax in BALB/c mouse plasma at 10 mg/kg, po upto 24 hrs; format: ADME, organism-based; set-up: dose 10 mg/kg, route oral
Cytochrome P450 2C9 = Cytochrome P450 2C9 (Homo sapiens, UniProt P11712); assay: Inhibition of CYP2C9; format: ADME
Sequence of Cytochrome P450 2C9 (P11712 whole entry): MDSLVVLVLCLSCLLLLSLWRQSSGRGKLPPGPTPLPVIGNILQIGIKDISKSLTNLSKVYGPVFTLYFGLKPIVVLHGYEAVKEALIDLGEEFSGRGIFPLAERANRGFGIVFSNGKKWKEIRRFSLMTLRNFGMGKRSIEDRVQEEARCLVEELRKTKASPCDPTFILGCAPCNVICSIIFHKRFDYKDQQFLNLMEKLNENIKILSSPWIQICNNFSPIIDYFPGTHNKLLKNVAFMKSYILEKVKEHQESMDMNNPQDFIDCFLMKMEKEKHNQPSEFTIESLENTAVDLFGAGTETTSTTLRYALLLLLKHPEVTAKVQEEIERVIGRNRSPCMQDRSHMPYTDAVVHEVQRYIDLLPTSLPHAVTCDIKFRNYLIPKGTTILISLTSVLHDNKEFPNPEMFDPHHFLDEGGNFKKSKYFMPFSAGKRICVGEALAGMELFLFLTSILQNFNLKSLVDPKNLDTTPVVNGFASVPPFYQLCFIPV

Insulin receptor = Insulin receptor (Homo sapiens, UniProt P06213); assay: Inhibition of insulin receptor kinase
Sequence of Insulin receptor (P06213 28-758 limits assumed): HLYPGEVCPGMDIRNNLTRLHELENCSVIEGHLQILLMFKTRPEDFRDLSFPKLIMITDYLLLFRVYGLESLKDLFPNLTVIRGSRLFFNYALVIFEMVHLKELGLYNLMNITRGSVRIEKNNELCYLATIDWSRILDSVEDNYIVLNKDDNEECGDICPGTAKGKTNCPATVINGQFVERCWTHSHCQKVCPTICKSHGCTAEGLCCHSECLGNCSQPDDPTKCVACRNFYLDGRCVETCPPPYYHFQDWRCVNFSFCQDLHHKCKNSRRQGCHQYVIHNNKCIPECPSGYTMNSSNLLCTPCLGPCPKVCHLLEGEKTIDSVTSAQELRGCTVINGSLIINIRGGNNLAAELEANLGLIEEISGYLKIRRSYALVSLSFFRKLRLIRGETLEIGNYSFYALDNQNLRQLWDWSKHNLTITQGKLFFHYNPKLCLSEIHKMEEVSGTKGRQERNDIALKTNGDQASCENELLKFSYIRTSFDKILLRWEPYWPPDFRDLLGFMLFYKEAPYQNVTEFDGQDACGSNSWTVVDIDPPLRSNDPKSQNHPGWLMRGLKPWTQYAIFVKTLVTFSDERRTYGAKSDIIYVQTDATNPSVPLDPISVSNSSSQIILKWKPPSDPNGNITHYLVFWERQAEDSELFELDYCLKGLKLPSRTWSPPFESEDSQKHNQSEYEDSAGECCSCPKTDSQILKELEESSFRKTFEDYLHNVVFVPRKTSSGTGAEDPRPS
Sequence of Insulin receptor (P06213 763-1382 limits assumed): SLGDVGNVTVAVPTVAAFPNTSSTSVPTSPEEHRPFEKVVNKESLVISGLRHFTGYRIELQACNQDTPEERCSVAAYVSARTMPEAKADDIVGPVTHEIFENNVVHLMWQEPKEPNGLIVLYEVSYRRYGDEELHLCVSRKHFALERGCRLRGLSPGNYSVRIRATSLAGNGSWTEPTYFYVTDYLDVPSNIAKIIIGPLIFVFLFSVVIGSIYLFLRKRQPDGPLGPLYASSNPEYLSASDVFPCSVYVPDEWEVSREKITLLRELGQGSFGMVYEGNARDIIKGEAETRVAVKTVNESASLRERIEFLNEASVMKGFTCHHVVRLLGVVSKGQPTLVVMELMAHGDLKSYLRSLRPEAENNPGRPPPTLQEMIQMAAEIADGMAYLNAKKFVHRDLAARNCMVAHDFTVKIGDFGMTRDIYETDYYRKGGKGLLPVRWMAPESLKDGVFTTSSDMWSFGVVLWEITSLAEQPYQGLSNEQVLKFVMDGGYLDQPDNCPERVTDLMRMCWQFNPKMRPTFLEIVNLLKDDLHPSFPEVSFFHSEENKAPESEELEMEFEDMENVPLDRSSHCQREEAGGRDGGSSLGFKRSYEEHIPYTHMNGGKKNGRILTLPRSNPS

[3] = AUC (0 to infinity) in BALB/c mouse at 10 mg/kg, po; format: ADME, organism-based; set-up: time infinity, dose 10 mg/kg, route oral; details: plasma
[4] = Metabolic stability in human microsomes assessed as compound remaining after 15 mins; format: ADME, Microsome; details: read-out: Stability
[5] = Solubility of compound; format: physicochemical
Cytochrome P450 1A2 = target: T2, Cytochrome P450 1A2 (Homo sapiens, UniProt P05177); assay: Inhibition of CYP1A2; format: ADME
T2 sequence (P05177 whole entry): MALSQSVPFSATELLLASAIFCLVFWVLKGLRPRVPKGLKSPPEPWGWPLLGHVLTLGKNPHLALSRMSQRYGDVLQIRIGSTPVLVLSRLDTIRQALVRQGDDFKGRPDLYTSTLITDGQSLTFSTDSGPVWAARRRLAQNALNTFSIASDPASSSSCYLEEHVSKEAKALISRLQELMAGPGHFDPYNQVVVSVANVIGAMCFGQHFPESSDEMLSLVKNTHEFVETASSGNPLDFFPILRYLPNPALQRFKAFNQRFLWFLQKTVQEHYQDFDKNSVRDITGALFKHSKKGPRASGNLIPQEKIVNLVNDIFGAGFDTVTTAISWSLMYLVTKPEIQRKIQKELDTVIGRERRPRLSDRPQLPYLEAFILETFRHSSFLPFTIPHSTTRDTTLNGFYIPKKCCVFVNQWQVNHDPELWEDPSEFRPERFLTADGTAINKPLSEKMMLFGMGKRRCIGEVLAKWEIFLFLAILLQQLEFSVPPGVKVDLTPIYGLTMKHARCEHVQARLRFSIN

Cytochrome P450 2D6 = Cytochrome P450 2D6 (Homo sapiens, UniProt P10635); assay: Inhibition of CYP2D6; format: ADME
Sequence of Cytochrome P450 2D6 (P10635 whole entry): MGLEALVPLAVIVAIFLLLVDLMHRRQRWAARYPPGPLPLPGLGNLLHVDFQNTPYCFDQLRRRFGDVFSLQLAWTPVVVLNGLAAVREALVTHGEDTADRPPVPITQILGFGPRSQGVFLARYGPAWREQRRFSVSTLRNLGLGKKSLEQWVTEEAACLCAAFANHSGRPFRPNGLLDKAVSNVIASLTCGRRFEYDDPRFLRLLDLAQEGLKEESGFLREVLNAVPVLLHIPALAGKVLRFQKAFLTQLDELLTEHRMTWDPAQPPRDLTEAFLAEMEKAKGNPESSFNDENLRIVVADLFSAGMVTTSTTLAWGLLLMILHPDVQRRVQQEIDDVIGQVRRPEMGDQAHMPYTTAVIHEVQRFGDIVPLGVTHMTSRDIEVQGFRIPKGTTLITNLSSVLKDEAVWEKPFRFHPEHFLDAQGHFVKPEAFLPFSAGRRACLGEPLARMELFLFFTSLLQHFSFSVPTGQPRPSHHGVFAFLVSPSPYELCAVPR

Cytochrome P450 2C19 = Cytochrome P450 2C19 (Homo sapiens, UniProt P33261); assay: Inhibition of CYP2C19; format: ADME
Sequence of Cytochrome P450 2C19 (P33261 whole entry): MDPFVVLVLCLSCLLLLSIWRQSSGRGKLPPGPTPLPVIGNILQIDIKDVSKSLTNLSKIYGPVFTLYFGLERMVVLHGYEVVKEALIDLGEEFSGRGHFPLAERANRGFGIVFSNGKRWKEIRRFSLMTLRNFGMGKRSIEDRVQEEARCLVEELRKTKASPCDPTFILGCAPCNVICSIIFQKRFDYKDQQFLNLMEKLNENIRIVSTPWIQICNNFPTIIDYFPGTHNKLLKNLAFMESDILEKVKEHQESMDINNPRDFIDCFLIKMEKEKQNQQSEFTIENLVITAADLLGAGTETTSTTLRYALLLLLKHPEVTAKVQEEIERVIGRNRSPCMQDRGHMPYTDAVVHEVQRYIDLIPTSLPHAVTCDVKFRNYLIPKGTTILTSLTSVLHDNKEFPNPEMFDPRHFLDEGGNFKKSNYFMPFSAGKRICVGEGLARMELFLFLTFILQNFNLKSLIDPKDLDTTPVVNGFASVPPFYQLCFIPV

[6] = Oral bioavailability in BALB/c mouse at 10 mg/kg; format: ADME, organism-based; details: in vivo
[7] = Metabolic stability in mouse liver microsomes assessed as compound remaining after 15 mins
Cytochrome P450 3A4 = Cytochrome P450 3A4 (Homo sapiens, UniProt P08684); assay: Inhibition of CYP3A4; format: ADME
Sequence of Cytochrome P450 3A4 (P08684 whole entry): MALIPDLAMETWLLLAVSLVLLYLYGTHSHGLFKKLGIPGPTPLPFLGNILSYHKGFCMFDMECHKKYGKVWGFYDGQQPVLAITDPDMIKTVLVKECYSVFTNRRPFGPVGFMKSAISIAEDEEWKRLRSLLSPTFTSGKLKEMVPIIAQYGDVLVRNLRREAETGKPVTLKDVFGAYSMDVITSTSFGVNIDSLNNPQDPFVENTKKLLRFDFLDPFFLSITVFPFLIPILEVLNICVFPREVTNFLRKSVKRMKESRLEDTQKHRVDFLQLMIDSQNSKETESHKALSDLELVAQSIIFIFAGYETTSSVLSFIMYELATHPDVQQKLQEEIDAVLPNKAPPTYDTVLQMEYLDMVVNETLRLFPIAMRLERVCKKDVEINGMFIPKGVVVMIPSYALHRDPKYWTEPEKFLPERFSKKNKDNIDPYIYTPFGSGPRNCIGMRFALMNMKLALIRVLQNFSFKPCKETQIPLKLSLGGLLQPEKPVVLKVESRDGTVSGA

[8] = target: T1, Insulin-like growth factor 1 receptor; assay: Inhibition of autophosphosphorylation of human IGF1R expressed in IGF1-stimulated MCF7 cells by ELISA; format: cell-based
[9] = target: T1, Insulin-like growth factor 1 receptor; assay: Inhibition of IGF-induced autophosphosphorylation of GST-tagged human IGF1R expressed in SF21 cells after 10 mins by time resolved-fluorescent assay
[10] = target: T1, Insulin-like growth factor 1 receptor; assay: Inhibition of IGF-induced autophosphosphorylation of GST-tagged human IGF1R expressed in baculovirus-SF21 cell system preincubated for 5 mins by time resolved-fluorescent assay
[11] = target: T1, Insulin-like growth factor 1 receptor; assay: Inhibition of autophosphosphorylation of human IGF1R expressed in IGF1-stimulated MCF7 cells preincubated for 60 mins by ELISA; format: cell-based
[12] = target: T1, Insulin-like growth factor 1 receptor; assay: Inhibition of IGF-induced autophosphosphorylation of GST-tagged human IGF1R expressed in baculovirus-SF21 cell system preincubated for 60 mins by time resolved-fluorescent assay
[13] = target: T1, Insulin-like growth factor 1 receptor; assay: Inhibition of IGF-induced autophosphosphorylation of GST-tagged human IGF1R expressed in baculovirus-SF21 cell system preincubated for 10 mins by time resolved-fluorescent assay
[14] = target: T1, Insulin-like growth factor 1 receptor; assay: Inhibition of IGF-induced autophosphosphorylation of GST-tagged human IGF1R expressed in baculovirus-SF21 cell system preincubated for 30 mins by time resolved-fluorescent assay

- IC50 [1]: 4710 nM
SMILES: CC1(C)C(=O)N(c2ccc(SC(F)(F)F)cc2)C(=O)N1Cc1ccnc(NS(C)(=O)=O)c1

- IC50 [1]: > 10000 nM
SMILES: CC1(C)C(=O)N(c2ccc(SC(F)(F)F)cc2)C(=O)N1Cc1ccnc(N2CCNCC2)c1

- IC50 [1]: > 100000 nM
SMILES: C[C@H]1C(=O)N(c2ccc(S(=O)(=O)C(F)(F)F)cc2)C(=O)N1CC1CCNCC1

- IC50 [1]: 1090 nM
SMILES: COc1ccc(CNc2cc(CN3C(=O)N(c4ccc(SC(F)(F)F)cc4)C(=O)C3(C)C)ccn2)cc1

- IC50 [1]: 2950 nM
SMILES: CC1(C)C(=O)N(c2ccc(SC(F)(F)F)cc2)C(=O)N1Cc1ccnc(C(N)=O)c1

- IC50 [1]: > 100000 nM
SMILES: C[C@H]1C(=O)N(c2ccc(S(C)(=O)=O)cc2)C(=O)N1Cc1ccnc2ccccc12

- IC50 [1]: > 10000 nM
SMILES: CC1(C)C(=O)N(c2ccc(SC(F)(F)F)cc2)C(=O)N1Cc1ccnc(N2CCCCC2)c1

- IC50 [1]: > 100000 nM
SMILES: C[C@H]1C(=O)N(c2ccc(S(=O)(=O)C(F)(F)F)cc2)C(=O)N1Cc1ccccn1

- IC50 [1]: > 100000 nM
SMILES: C[C@H]1C(=O)N(c2ccc(S(=O)(=O)C(F)(F)F)cc2)C(=O)N1Cc1c[nH]cn1

- IC50 [1]: 453 nM
SMILES: CC(C)Nc1cc(CN2C(=O)N(c3ccc(SC(F)(F)F)cc3)C(=O)C2(C)C)ccn1

- IC50 [1]: 1600 nM
SMILES: C[C@H]1C(=O)N(c2ccc(S(=O)(=O)C(F)(F)F)cc2)C(=O)N1Cc1ccncc1

- IC50 [1]: > 10000 nM
SMILES: CC1(C)C(=O)N(c2ccc(SC(F)(F)F)cc2)C(=O)N1Cc1ccnc(N2CCOCC2)c1

- IC50 [1]: > 100000 nM
SMILES: C[C@H]1C(=O)N(c2ccc(S(=O)(=O)C(F)(F)F)cc2)C(=O)N1Cc1cc[n+]([O-])c2ccccc12

- IC50 [1]: 460 nM
SMILES: CC1(C)C(=O)N(c2ccc(S(=O)(=O)C(F)(F)F)cc2)C(=O)N1Cc1ccnc2ccccc12

- Cmax [2]: 1490 ng/mL
- IC50 (Cytochrome P450 2C9): 700 nM
- IC50 (Insulin receptor): 300 nM
- AUC(0-inf) [3]: 13200 ng·h/mL
- remaining at 0.25 h [4]: 82%
- solubility [5]: 9.9 µg/mL (≈ 21.4 µM)
- IC50 (Cytochrome P450 1A2): > 15000 nM
- IC50 (Cytochrome P450 2D6): > 15000 nM
- IC50 (Cytochrome P450 2C19): > 15000 nM
- bioavailability [6]: > 100%
- remaining at 0.25 h [7]: 83%
- IC50 (Cytochrome P450 3A4): > 15000 nM
SMILES: C[C@H]1C(=O)N(c2ccc(S(=O)(=O)C(F)(F)F)cc2)C(=O)N1Cc1ccnc2ccccc12
- IC50 (MEF): 300 nM

- IC50 [8]: 34 nM
- IC50 [9]: 92 nM
- IC50 [1]: 92 nM
SMILES: CC1(C)C(=O)N(c2ccc(SC(F)(F)F)cc2)C(=O)N1Cc1ccnc(N)c1
- IC50 (MEF): 97 nM

- IC50 [10]: 34 nM
- IC50 [8]: 145 nM
- IC50 [11]: 180 nM
- IC50 [1]: 55 nM
- IC50 [12]: 35 nM
- IC50 [13]: 34 nM
- IC50 [14]: 33 nM
SMILES: COc1cc2c(-c3cc4cccnc4[nH]3)cn(C)c2cc1OC
- IC50 (MEF): 1600 nM

- IC50 [1]: > 100000 nM
SMILES: C[C@H]1C(=O)N(c2ccc(S(=O)(=O)C(F)(F)F)cc2)C(=O)N1Cc1cnc2ccccc2c1

- IC50 [1]: > 10000 nM
SMILES: CN1CCN(c2cc(CN3C(=O)N(c4ccc(SC(F)(F)F)cc4)C(=O)C3(C)C)ccn2)CC1

- IC50 [1]: 1060 nM
SMILES: CC1(C)C(=O)N(c2ccc(SC(F)(F)F)cc2)C(=O)N1Cc1ccnc(Nc2ccccc2)c1

- IC50 [1]: > 100000 nM
SMILES: C[C@H]1C(=O)N(c2ccc(S(=O)(=O)C(F)(F)F)cc2)C(=O)N1Cc1cc[n+]([O-])cc1

- IC50 [1]: > 10000 nM
SMILES: CC1(C)C(=O)N(c2ccc(SC(F)(F)F)cc2)C(=O)N1Cc1ccnc(C#N)c1

- IC50 [1]: 4500 nM
SMILES: CN(C)c1cc(CN2C(=O)N(c3ccc(SC(F)(F)F)cc3)C(=O)C2(C)C)ccn1

- IC50 [8]: 47 nM
- IC50 [9]: 154 nM
- IC50 [1]: 154 nM
SMILES: CCNc1cc(CN2C(=O)N(c3ccc(SC(F)(F)F)cc3)C(=O)C2(C)C)ccn1
- IC50 (MEF): 104 nM

- IC50 [1]: 5400 nM
SMILES: O=C1CN(Cc2ccnc3ccccc23)C(=O)N1c1ccc(S(=O)(=O)C(F)(F)F)cc1

- IC50 [1]: 995 nM
SMILES: CC1(C)C(=O)N(c2ccc(SC(F)(F)F)cc2)C(=O)N1Cc1ccnc(Cl)c1

- IC50 [8]: 117 nM
- IC50 [9]: 264 nM
- IC50 [1]: 264 nM
SMILES: CC1(C)C(=O)N(c2ccc(SC(F)(F)F)cc2)C(=O)N1Cc1ccncc1
- IC50 (MEF): 282 nM

- IC50 [1]: 1850 nM
SMILES: CCOc1cc(CN2C(=O)N(c3ccc(SC(F)(F)F)cc3)C(=O)C2(C)C)ccn1

- IC50 [1]: > 100000 nM
SMILES: C[C@H]1C(=O)N(c2ccc(S(=O)(=O)C(F)(F)F)cc2)C(=O)N1Cc1ccccc1

SMILES: CNc1cc(CN2C(=O)N(c3ccc(SC(F)(F)F)cc3)C(=O)C2(C)C)ccn1
- IC50 (MEF): 312 nM

- IC50 [1]: > 10000 nM
SMILES: CC1(C)C(=O)N(c2ccc(SC(F)(F)F)cc2)C(=O)N1Cc1ccnc(C(=O)O)c1

- IC50 [1]: 1050 nM
SMILES: CC1(C)C(=O)N(c2ccc(SC(F)(F)F)cc2)C(=O)N1Cc1ccnc(NCc2ccccc2)c1

- IC50 [1]: 574 nM
SMILES: CCc1cc(CN2C(=O)N(c3ccc(SC(F)(F)F)cc3)C(=O)C2(C)C)ccn1

- IC50 [1]: 79700 nM
SMILES: C[C@H]1C(=O)N(c2ccc(S(=O)(=O)C(F)(F)F)cc2)C(=O)N1Cc1cccnc1

- IC50 [1]: 2520 nM
SMILES: C[C@H]1C(=O)N(c2ccc([S+]([O-])C(F)(F)F)cc2)C(=O)N1Cc1ccnc2ccccc12 (stereo not given in full)

- IC50 [1]: 784 nM
SMILES: CC(C)(C)OC(=O)Nc1cc(CN2C(=O)N(c3ccc(SC(F)(F)F)cc3)C(=O)C2(C)C)ccn1

- IC50 [1]: 1240 nM
SMILES: CC1(C)C(=O)N(c2ccc(SC(F)(F)F)cc2)C(=O)N1Cc1ccnc(NC2CCCCC2)c1

- IC50 [1]: 703 nM
SMILES: CNC(=O)c1cc(CN2C(=O)N(c3ccc(SC(F)(F)F)cc3)C(=O)C2(C)C)ccn1

- IC50 [10]: 175 nM
- IC50 [8]: 7 nM
- IC50 [9]: 98 nM
- IC50 [11]: 7 nM
- IC50 [1]: 98 nM
- IC50 [12]: 7 nM
- IC50 [13]: 87 nM
- IC50 [14]: 28 nM
SMILES: CC(=O)Nc1cc(CN2C(=O)N(c3ccc(SC(F)(F)F)cc3)C(=O)C2(C)C)ccn1
- IC50 (MEF): 8 nM
